“Also recorded” adds a separate entry of the source.
Experiments:
LC3-II = LC3-II protein level (autophagic flux) in SH-SY5Y cells with or without bafilomycin A1; type: cell-based, human
Source text: Data are represented as mean+/−SEM with statistical significance by paired student's t-test (n=4, p<0.05).
The observed increase in LC3-positive autophagosomes could result, in principle, from either an increased flux through the autophagy pathway or decreased autophagosome degradation (Pankiv, S., et al. J Biol Chem 282, 24131-24145 (2007); Kamada, Y., et al. J Cell Biol 150, 1507-1513 (2000)). […] In order to ascertain an increase in autophagic flux, cells were co-treated with LNK-754-TS and an inhibitor of autophagosome-lysosome fusion, bafilomycin A1 (10 nM). Bafilomycin treatment alone caused a 100% increase in the amount of LC3-II, consistent with the fact that it inhibits autophagosome degradation (FIG. 8c).
The mechanism of autophagy stimulation by LNK-754-TS appears distinct from that of the drug rapamycin. Rapamycin is a well-characterized autophagy stimulator that acts through inhibition of mTOR, a kinase involved in nutrient signaling and regulation of cell growth and survival. […] To further contrast the mechanism of autophagy stimulation by LNK-754-TS to that of rapamycin, a collection of mRNA transcripts of autophagy proteins were measured (FIG. 8d). Selected mRNAs from untreated SH-SY5Y cells were compared to mRNAs from cells treated with LNK-754-TS (100 nM), tipifarnib (100 nM), or rapamycin (1 μM).

p62 mRNA = p62 mRNA in SH-SY5Y cells; type: cell-based, human; conditions: 100 nM (FIG. 8e)
Protocol: (§1) Quantitative real-time PCR: Gene expression profiles were done by qPCR on series of known autophagy genes. RNA was extracted with Tri-reagent (Sigma), and cDNAs generated using iScript (Biorad). qPCR analysis was carried out in a 96 well plate using an iCycler (BioRad, Hercules, Calif.), and iQ SYBR Green Supermix (Biorad) according to the manufacturer's specifications.

LC3 = test: Punctate LC3 immunostaining in SH-SY5Y cells; type: cell-based, human; conditions: 100 nM (FIG. 8b)
Protocol: (§2) Cell culture and immunocytochemistry: SH-SY5Y cells were grown in DMEM medium supplemented with 10% FBS and 1% pen/strep at 37° C. and 5% CO2. Cells were differentiated with 10 μM retinoic acid for 48 hr, then treated with the either rapamycin (100 nM or 1 μM) or with 100 nM of either LNK-754-TS or Tipifarnib for 48-72 hr. Cells were then fixed with 4% paraformaldehyde and stained for LC3 (Novus biological, NB100-2331, dilution 1:800) followed by secondary Alexa-564 anti-Rabbit (A-11011).
(§3) Autophagy was measured in a neuroblastoma cell culture system by three distinct approaches: quantitation of autophagy-related mRNA's, immunofluorescence microscopy of autophagosomes, and biochemical detection of the microtubule-associated protein 1 light chain 3 (LC3) a key protein that is required for autophagosome formation. Differentiated human neuroblastoma cells (SH-SY5Y) were treated for 72 hr with LNK-754-TS (0.01-100 nM), Zarnestra® (also referred to herein as tipifarnib) (100 nM) or rapamycin (1 μM).

LC3 mRNA = LC3 mRNA (qPCR) in differentiated SH-SY5Y cells; type: cell-based, human
Protocol: as §2, §1
Such increases in LC3 mRNA levels are associated in the literature with stimulation of macroautophagy. This supports the hypothesis that at doses as low as 1 nM in this in vitro system there is stimulation of autophagy in these cells.
as §3

APP/PS1 transgenic mice = test: Morris water maze in APP/PS1 transgenic mice; type: in vivo, mouse; conditions: 0.9 mg/kg once every 24 hours
Protocol: Animals and treatments: Male and female human WT alpha-synuclein over-expressing transgenic mice^32 at 6 months of age were given vehicle (10% beta-cyclodextrin) or LNK-754-TS (0.09, 0.9 and 9 mg/kg) per oral gavage twice daily for 3 months or animals at 7 months of age were given vehicle (2.5% beta-cyclodextrin) or LNK-754-TS (2 mg/kg) once every three days for 3 months. Male and female TAU transgenic mice expressing TAU441 bearing the missense mutations V337M^50 and R406W under the control of the murine Thy-1 promoter with a CB6xC57BL/6 background were 5 months old at the time when the oral treatment for three months with LNK-754-TS (0.9 and 0.09 mg/kg) as well as vehicle (2.5% beta-cyclodextrin) was started. Female human APP/PS1 (APP (London V7171)/PS1(A246E)) over-expressing transgenic mice were treated with LNK-754-TS (0.9 mg/kg) or vehicle (2.5% beta-cyclodextrin) for 2 months or 12 days.
Morris water maze (MWM) analysis of cognitive performance: In APP/PS1 transgenic animals, swimming behavior in a Morris Water Maze was videotaped and analyzed (Ethovision, Noldus, Wageningen, Netherlands). For mice, a place navigation test was used to locate the hidden platform in five blocks of three trials over three consecutive days. […] The time each mouse needed for location of the platform was measured. […] The time and path length each rat needed to locate the platform was measured. […]

Ras = test: Soluble/cytoplasmic Ras level in frontal cortex of alpha-synuclein transgenic mice (immunoblot); type: in vivo, mouse; conditions: 0.09 mg/kg or 9 mg/kg b.i.d., 3 months
Protocol: The level of inhibition of Ras in brain by LNK-754-TS, dosed at an efficacious dose for efficacy in animal models of proteinopathy-dependent neurodegeneration, was investigated. Alpha-synuclein transgenic mice were treated for 3 months b.i.d. with vehicle or LNK-754-TS at 0.09 mg/kg or 9 mg/kg. Cortical tissue was extracted and homogenized, followed by isolation of soluble/cytosolic proteins in detergent-free buffer (50 mM Tris-HCl pH 7.4, 140 mM NaCl, 2 mM EDTA, Protease inhibitor cocktail) by centrifugation. 15 micrograms of protein lysate was analyzed per lane of SDS-PAGE gel, and immunoblotted for Ras and actin (FIG. 6). Densitometry was used to quantify the Ras/actin ratio for each sample, and results were plotted (FIG. 7). […] This contrasts with what is observed in xenograft cancer models, where inhibition of Ras farnesylation by high dose FTIs is directly correlated with efficacy (FIG. 3 and Example 3).

C#Cc1cccc(-c2cc(=O)n(C)c3ccc([C@](O)(c4ccc(Cl)cc4)c4cncn4C)cc23)c1 [LNK-754-TS, (R)-6-[(4-chlorophenyl)-hydroxyl-(1-methyl-1-H-imidazol-5-yl)-methyl]-4-(3-ethynylphenyl)-1-methyl-2-(1H)-quinonlinone (2S,3S)-dihydroxybutanedioate] was tested, and the LC3-II protein level (LC3-II; 100 nM in the presence of Bafilomycin A1 (10 nM)) was “increased”, the “accumulation of LC3-I or LC3-II” value (LC3-II; treatment alone, without bafilomycin) was “did not cause accumulation” and the “p62 mRNA” value (p62 mRNA) was “upregulation; also recorded: increased”. For the same compound, the “punctate LC3 immunostaining (number of LC3-positive puncta)” value (LC3) was “distinct increase; also recorded: increased”, the “LC3 mRNA level” value (LC3 mRNA; 0.01-100 nM, 72 hr (FIG. 8a)) was “upregulated; also recorded: increased” and the “potency of LC3 transcript upregulation relative to the other two compounds” value (LC3 mRNA; 72 hr, vs. Zarnestra and rapamycin) was “most potently”. For the same compound, the “levels of mRNA of LC3” value (LC3 mRNA; doses between 1 and 100 nM, 72 hours (FIG. 4)) was “significant increases”, the “cognitive performance in Morris water maze vs. vehicle” value (APP/PS1 transgenic mice; 12 days) was “significant cognitive improvement” and the “cognitive performance in Morris water maze vs. vehicle” value (APP/PS1 transgenic mice; two months) was “performed significantly better; also recorded: significant cognitive improvement”. The “effect on Ras farnesylation in brain” value (Ras) was “no significant effect” and the “soluble Ras/actin level in cortex vs. vehicle” value (Ras) was “No significant differences”.
